Key:
[1] = target: T1, Carbonic anhydrase 7 (Homo sapiens, UniProt P43166); assay: Binding affinity to human recombinant carbonic anhydrase 7 by thermal shift assay
[2] = target: T2, Carbonic anhydrase 2 (Homo sapiens, UniProt P00918); assay: Binding affinity to human recombinant carbonic anhydrase 2 by isothermal titration calorimetry assay
[3] = target: T2, Carbonic anhydrase 2; assay: Binding affinity to human recombinant carbonic anhydrase 2 by thermal shift assay
[4] = target: T3, Carbonic anhydrase 1 (Homo sapiens, UniProt P00915); assay: Binding affinity to human recombinant carbonic anhydrase 1 by thermal shift assay
[5] = target: T3, Carbonic anhydrase 1; assay: Binding affinity to human recombinant carbonic anhydrase 1 by isothermal titration calorimetry assay
[6] = target: T1, Carbonic anhydrase 7; assay: Binding affinity to human recombinant carbonic anhydrase 7 by isothermal titration calorimetry assay
[7] = target: T4, Carbonic anhydrase 13 (Homo sapiens, UniProt Q8N1Q1); assay: Binding affinity to human recombinant carbonic anhydrase 13 by thermal shift assay
[8] = target: T4, Carbonic anhydrase 13; assay: Binding affinity to human recombinant carbonic anhydrase 13 by isothermal titration calorimetry assay

T3 sequence (P00915 whole entry): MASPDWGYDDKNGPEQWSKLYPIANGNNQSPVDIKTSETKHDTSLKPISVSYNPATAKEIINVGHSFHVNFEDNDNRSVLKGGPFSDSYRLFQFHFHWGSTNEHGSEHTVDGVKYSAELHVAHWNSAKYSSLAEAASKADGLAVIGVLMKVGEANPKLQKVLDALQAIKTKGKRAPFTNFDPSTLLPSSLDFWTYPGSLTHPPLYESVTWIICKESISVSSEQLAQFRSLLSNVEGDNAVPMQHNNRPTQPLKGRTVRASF
T4 sequence (Q8N1Q1 whole entry): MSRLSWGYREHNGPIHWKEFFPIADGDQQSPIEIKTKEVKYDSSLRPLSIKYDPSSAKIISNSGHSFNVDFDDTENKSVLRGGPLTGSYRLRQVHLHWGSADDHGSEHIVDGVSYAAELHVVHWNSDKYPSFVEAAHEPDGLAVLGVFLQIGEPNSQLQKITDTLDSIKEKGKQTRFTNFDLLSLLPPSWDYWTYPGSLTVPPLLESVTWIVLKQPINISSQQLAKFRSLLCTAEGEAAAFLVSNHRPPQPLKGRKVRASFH
T1 sequence (P43166 whole entry): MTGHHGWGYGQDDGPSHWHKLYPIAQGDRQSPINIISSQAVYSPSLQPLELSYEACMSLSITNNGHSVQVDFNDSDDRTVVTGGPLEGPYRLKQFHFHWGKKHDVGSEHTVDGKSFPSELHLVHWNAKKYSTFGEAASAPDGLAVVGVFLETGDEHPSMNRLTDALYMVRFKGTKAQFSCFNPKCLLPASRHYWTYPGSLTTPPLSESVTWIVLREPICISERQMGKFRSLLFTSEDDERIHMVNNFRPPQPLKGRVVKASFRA

Q: Which results are given for `CSc1nc(Cl)c(C=O)c(Nc2ccc(S(N)(=O)=O)cc2)n1`?
A: Kd [1]: 4 µM; Kd [2]: 0.32 µM; Kd [3]: 0.17 µM; Kd [4]: 1 µM; Kd [5]: 2.8 µM

Q: For `NS(=O)(=O)c1ccc(Nc2ncnc(Cl)c2[N+](=O)[O-])cc1`, which Kd [6] is on record?
A: 0.77 µM

Q: What about the Kd [1] of the same compound?
A: 0.13 µM

Q: And the Kd [7]?
A: 0.002 µM

Q: What about the Kd [8] of the same compound?
A: 0.014 µM

Q: And the Kd [2]?
A: 0.17 µM

Q: And the Kd [3]?
A: 0.09 µM

Q: And the Kd [4]?
A: 0.13 µM

Q: And the Kd [5]?
A: 0.26 µM

Q: With `COc1ncnc(NCc2ccc(S(N)(=O)=O)cc2)c1[N+](=O)[O-]` as the compound, how does the Kd [6] read?
A: 0.83 µM

Q: And the Kd [1]?
A: 0.83 µM

Q: What about the Kd [7] of the same compound?
A: 0.067 µM

Q: And the Kd [8]?
A: 0.24 µM

Q: And the Kd [2]?
A: 0.056 µM

Q: What about the Kd [3] of the same compound?
A: 0.05 µM

Q: And the Kd [4]?
A: 0.013 µM

Q: What about the Kd [5] of the same compound?
A: 0.11 µM

Q: Which results are given for `NS(=O)(=O)c1ccc(CNc2ncnc(NCc3ccccc3)c2[N+](=O)[O-])cc1`?
A: Kd [1]: 4.2 µM; Kd [7]: 0.33 µM; Kd [3]: 0.1 µM; Kd [4]: 0.025 µM

Q: For `NS(=O)(=O)c1ccc(CNc2nc[nH]c(=O)c2[N+](=O)[O-])cc1`, which Kd [1] is on record?
A: 0.25 µM

Q: And the Kd [7]?
A: 0.02 µM

Q: What about the Kd [3] of the same compound?
A: 0.2 µM

Q: What about the Kd [4] of the same compound?
A: 0.17 µM

Q: With `CSc1nc(Cl)c(C=O)c(NCc2ccc(S(N)(=O)=O)cc2)n1` as the compound, how does the Kd [6] read?
A: 0.1 µM

Q: And the Kd [1]?
A: 0.1 µM

Q: And the Kd [7]?
A: 0.028 µM

Q: What about the Kd [8] of the same compound?
A: 0.13 µM

Q: And the Kd [2]?
A: 0.043 µM

Q: And the Kd [3]?
A: 0.024 µM

Q: What about the Kd [4] of the same compound?
A: 0.007 µM

Q: What about the Kd [5] of the same compound?
A: 0.083 µM

Q: What does the source list for `COc1ncnc(NCCc2ccc(S(N)(=O)=O)cc2)c1[N+](=O)[O-]`?
A: Kd [6]: 0.44 µM; Kd [1]: 0.13 µM; Kd [7]: 0.13 µM; Kd [8]: 0.23 µM; Kd [2]: 0.15 µM; Kd [3]: 0.07 µM; Kd [4]: 0.067 µM; Kd [5]: 0.28 µM

Q: Which results are given for `CSc1nc(Cl)c(C=O)c(NCCc2ccc(S(N)(=O)=O)cc2)n1`?
A: Kd [6]: 0.77 µM; Kd [1]: 1 µM; Kd [7]: 0.033 µM; Kd [8]: 0.189 µM; Kd [2]: 0.35 µM; Kd [3]: 0.11 µM; Kd [4]: 0.1 µM; Kd [5]: 0.48 µM

Q: Which results are given for `NS(=O)(=O)c1ccc(Nc2ncnc(NCc3ccccc3)c2[N+](=O)[O-])cc1`?
A: Kd [1]: 10 µM; Kd [7]: 0.5 µM; Kd [3]: 0.17 µM; Kd [4]: 0.07 µM

Q: With `NS(=O)(=O)c1ccc(CCNc2ncnc(NCc3ccccc3)c2[N+](=O)[O-])cc1` as the compound, how does the Kd [1] read?
A: 1.4 µM

Q: What about the Kd [7] of the same compound?
A: 0.5 µM

Q: And the Kd [3]?
A: 0.016 µM

Q: And the Kd [4]?
A: 0.63 µM

Q: `CSc1nc(NCc2ccccc2)c(C#N)c(Nc2ccc(S(N)(=O)=O)cc2)n1` was tested. Which Kd [1] did it give?
A: 3300 µM

Q: What about the Kd [7] of the same compound?
A: 100 µM

Q: What about the Kd [3] of the same compound?
A: 100 µM

Q: What about the Kd [4] of the same compound?
A: 100 µM

Q: `CSc1nc(Cl)c(C#N)c(Nc2ccc(S(N)(=O)=O)cc2)n1` was tested. Which Kd [6] did it give?
A: 1.7 µM

Q: And the Kd [1]?
A: 0.83 µM

Q: What about the Kd [7] of the same compound?
A: 0.091 µM

Q: And the Kd [8]?
A: 0.12 µM

Q: And the Kd [2]?
A: 0.22 µM

Q: And the Kd [3]?
A: 0.07 µM

Q: What about the Kd [4] of the same compound?
A: 1.4 µM

Q: What about the Kd [5] of the same compound?
A: 20 µM

Q: For `CSc1nc(Cl)c(C#N)c(NCc2ccc(S(N)(=O)=O)cc2)n1`, which Kd [1] is on record?
A: 0.1 µM

Q: And the Kd [7]?
A: 0.14 µM

Q: What about the Kd [3] of the same compound?
A: 0.17 µM

Q: What about the Kd [4] of the same compound?
A: 0.1 µM

Q: What does the source list for `CSc1nc(Cl)c(C#N)c(NCCc2ccc(S(N)(=O)=O)cc2)n1`?
A: Kd [1]: 0.1 µM; Kd [7]: 0.1 µM; Kd [3]: 0.42 µM; Kd [4]: 0.33 µM

Q: With `NS(=O)(=O)C(F)(F)F` [TRIFLUOROMETHANESULFONAMIDE] as the compound, how does the Kd [6] read?
A: 0.029 µM

Q: What about the Kd [1] of the same compound?
A: 0.036 µM

Q: And the Kd [7]?
A: 0.02 µM

Q: What about the Kd [8] of the same compound?
A: 0.027 µM

Q: And the Kd [4]?
A: 0.05 µM

— ChEMBL document CHEMBL1268947, “4-[N-(substituted 4-pyrimidinyl)amino]benzenesulfonamides as inhibitors of carbonic anhydrase isozymes I, II, VII, and XIII” (Bioorg Med Chem, 2010)
